The source made the active and inactive calls. The calls are words filed in the database; no cut-off is given here.
Columns and labels:
[1] = biological target: RNA-directed RNA polymerase (Hepacivirus hominis, UniProt O39930); test: Inhibitory activity against HCV 1b BK NS5B deltaC21 RNA polymerase; design: species or system Hepatitis C virus subtype 1b
Hepatitis C virus = test: Antiviral activity against HCV 1b in Huh7 cell line upto 10 uM by replicon assay; type: functional, cell-based; settings: Hepacivirus hominis; genotype 1b; Huh-7

RNA-directed RNA polymerase, sequence (O39930 whole entry): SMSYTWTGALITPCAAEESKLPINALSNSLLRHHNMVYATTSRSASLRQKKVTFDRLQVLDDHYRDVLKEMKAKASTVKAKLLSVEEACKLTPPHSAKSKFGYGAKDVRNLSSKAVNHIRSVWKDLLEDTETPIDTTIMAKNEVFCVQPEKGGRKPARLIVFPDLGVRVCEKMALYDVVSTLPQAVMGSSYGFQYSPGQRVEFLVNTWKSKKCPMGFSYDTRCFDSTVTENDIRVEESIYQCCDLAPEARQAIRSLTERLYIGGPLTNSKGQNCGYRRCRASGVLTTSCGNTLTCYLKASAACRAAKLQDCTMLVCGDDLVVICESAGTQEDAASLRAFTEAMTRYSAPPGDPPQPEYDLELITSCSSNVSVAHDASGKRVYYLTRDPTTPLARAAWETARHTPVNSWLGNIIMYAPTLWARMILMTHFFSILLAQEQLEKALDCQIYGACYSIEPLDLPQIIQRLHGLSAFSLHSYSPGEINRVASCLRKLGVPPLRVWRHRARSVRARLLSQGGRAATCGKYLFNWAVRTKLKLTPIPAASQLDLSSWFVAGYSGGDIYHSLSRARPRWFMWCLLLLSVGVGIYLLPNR

Structure (SMILES)	IC50 [1] [µM]	Activity (Hepatitis C virus)
Cc1cc(SC2=C(O)OC(CCc3ccc(O)cc3)(C3CCCC3)CC2=O)c(C(C)(C)C)cc1N (configuration not stated)	0.93	inactive
CC(C)Oc1ccc(CCC2(C3CCCC3)CC(=O)CC(=O)O2)cc1F (configuration not stated)	–	inactive
COc1ccc(CCC2(C3CCCC3)CC(=O)C(Sc3nnnn3C)=C(O)O2)cc1Cl (configuration not stated)	0.28	inactive
CC(C)c1ccc(CCC2(C3CCCC3)CC(=O)CC(=O)O2)cc1 (configuration not stated)	4.3	inactive
COc1ccc(CCC2(C3CCCC3)CC(=O)C(Sc3nccn3C)=C(O)O2)cc1Cl (configuration not stated)	0.14	inactive
CC1(CCc2ccc(O)cc2)CC(=O)CC(=O)O1 (configuration not stated)	> 100	inactive
CCCC1(CCc2ccc(OC)cc2)CC(=O)CC(=O)O1 (configuration not stated)	> 50	inactive
Cc1cccc(CCC2(C3CCCC3)CC(=O)CC(=O)O2)c1 (configuration not stated)	23	inactive
CC(C)Oc1ccc(CCC2(C3CCCC3)CC(=O)CC(=O)O2)cc1 (configuration not stated)	1.7	inactive
COc1ccc(CCC2(C3CCCC3)CC(=O)CC(=O)O2)cc1F (configuration not stated)	0.89	inactive
O=C1CC(=O)OC(CCc2ccc(O)cc2)(C2CCCC2)C1 (configuration not stated)	8.2	inactive
COc1ccc(CCC2(C3CCCC3)CC(=O)C(Sc3nncn3C)=C(O)O2)cc1Cl (configuration not stated)	0.038	inactive
CCc1cccc(CCC2(C3CCCC3)CC(=O)CC(=O)O2)c1 (configuration not stated)	3.6	inactive
CCOc1ccc(CCC2(C3CCCC3)CC(=O)CC(=O)O2)cc1 (configuration not stated)	2.9	inactive

The next lines start with results.

IC50 [1] [µM]	Structure (SMILES)	Activity (Hepatitis C virus)
0.79	CCOc1ccc(CCC2(C3CCCC3)CC(=O)CC(=O)O2)cc1F (configuration not stated)	inactive
1.8	CC(C)c1cccc(CCC2(C3CCCC3)CC(=O)CC(=O)O2)c1 (configuration not stated)	inactive
9.7	COc1ccc(CCC2(C3CCCC3)CC(=O)CC(=O)O2)cc1 (configuration not stated)	inactive
93	O=C1CC(=O)OC(CCc2ccc(O)cc2)(C2CCC2)C1 (configuration not stated)	inactive
5	O=C1CC(=O)OC(CCc2cccc(Cl)c2)(C2CCCC2)C1 (configuration not stated)	inactive
0.56	COc1ccc(CCC2(C3CCCC3)CC(=O)C(Sc3ccccc3)=C(O)O2)cc1Cl (configuration not stated)	inactive
48	O=C1CC(=O)OC(CCc2ccccc2)(C2CCCC2)C1 (configuration not stated)	inactive
52	O=C1CC(=O)OC(CCc2ccc(O)cc2)(C2CCCCC2)C1 (configuration not stated)	inactive
1	COc1ccc(CCC2(C3CCCC3)CC(=O)CC(=O)O2)cc1Cl (configuration not stated)	inactive
0.13	COc1ccc(CCC2(C3CCCC3)CC(=O)C(Sc3ccc(O)cc3)=C(O)O2)cc1Cl (configuration not stated)	inactive
